This note sets out measurements from patent US11071727B2, “Therapeutic targeting of proteolytic cleavage of the mixed lineage leukemia gene product (MLL1) by taspase1 using kinase inhibitors” (Northwestern University, priority 2018, dated 2021).

Assay [1] relates to MLL1 cleavage by taspase1. The experiment in a line: in vitro taspase1 cleavage assay on lysates of pretreated taspase1 KO cells. Format: biochemical, human. The following applies: 293T taspase1 KO cells pretreated 30 hours with CX-4945 (3 μM) or TTP22 (10 μM), compared with DMSO control. On the procedure: FIG. 5. CKII inhibitors selectively increase full-length MLL1 protein levels by decreasing the phosphorylation of MLL1 near the cleavage sites. (A) Conservation of the sequences flanking MLL1-CS2, MLL2 and TFIIA cleavage sites and phosphorylated serine and threonine residues after the cleavage sites (highlighted in red). (B) and (C) 293T cells were transfected with vector control (VT), WT, AA or DD reporter constructs of MLL1-p75 or TFIIA. Western blot was performed with anti-Flag antibody for MLL1 (p75: FL, p47: cleaved) or TFIIA (p54: FL, p47: cleaved). (D) and (E) 293T cells were transfected with WT or AA reporter constructs of MLL1-p75 or TFIIA in the presence or absence of HA-taspase1. Western blot was performed with anti-Flag antibody for MLL1 or TFIIA, or anti-HA antibody for taspase1. (F) 293T cells were infected with shRNAs against CKIIα or CKIIα′. Western blot was performed with anti-MLL1C antibody for MLL1 full-length protein levels, and CKIIα or CKIIα′ for knockdown efficiency. (G) 293T cells were treated with DMSO or 10 μM CX-4945 for 30 hours. Cells were harvested and lysed for Western blot against MLL1, MLL2 or TFIIA using β-tubulin as the loading control. […]
in vitro taspase1 cleavage assay. […] Cleavage efficiency was detected by western blot against MLL1C and TFIIA using Hsp90 as the loading control.

A further assay deals with MLL1 chromatin occupancy. Description: ChIP-seq of MLL1 occupancy in 293T cells. Format: cell-based, human. The following applies: relative to DMSO control. On the procedure:
FIG. 6. CKII inhibition increases genome-wide MLL occupancy and excludes SEC recruitment in MLL leukemia cells. (A) and (B) MLL1C occupancy in CX-4945 or TTP22 treated cells were shown relative to DMSO control. […] (C) Track examples of the MLL1 occupancy at the promoter regions of ELF2 and C6orf211. (D) CX-4945 inhibition of leukemia cell proliferation. Multiple MLL leukemia (orange lines) and non-MLL leukemia (blue lines) were cultured with different doses of CX-4945 for 3 days. Cell number was determined by cell counter and normalized to DMSO control. (E) SEM cells were treated with 0, 5 or 10 μM of CX-4945 for 30 hours and western blot was performed to determine the MLL1 full-length protein levels and MLL-AF4 fusion protein levels. (F) MLL-AFF1, AFF4 and ELL2 occupancies were decreased by CX-4945 treatment in SEM cells.
ChIP-seq Analysis. 5×10^7 cells were used for each ChIP assay, as performed as previously described (Chen et al. 2015). Peaks were called with MACS v1.4.2 (Zhang et al. 2008) using default parameters and were annotated by the HOMER software (Heinz et al. 2010). Metaplots were generated using ngsplot (Shen et al. 2014). […] Differential occupancy of MLL1 was evaluated by edgeR, and peaks with Benjamini-Hochburg adjusted p-values less than 0.05 were considered to be differentially occupied. […]

For another assay, the system named is MLL1. Description: Western blot of full-length MLL1 protein levels in cells treated with CKII inhibitors. The note with it: 293T, MCF7 and HCT116 cells, 0-20 μM, 30 hours, Western blot with MLL1C antibody. The class given is cell-based, human. How it is done:
FIG. 5. CKII inhibitors selectively increase full-length MLL1 protein levels by decreasing the phosphorylation of MLL1 near the cleavage sites. (A) Conservation of the sequences flanking MLL1-CS2, MLL2 and TFIIA cleavage sites and phosphorylated serine and threonine residues after the cleavage sites (highlighted in red). (B) and (C) 293T cells were transfected with vector control (VT), WT, AA or DD reporter constructs of MLL1-p75 or TFIIA. Western blot was performed with anti-Flag antibody for MLL1 (p75: FL, p47: cleaved) or TFIIA (p54: FL, p47: cleaved). (D) and (E) 293T cells were transfected with WT or AA reporter constructs of MLL1-p75 or TFIIA in the presence or absence of HA-taspase1. Western blot was performed with anti-Flag antibody for MLL1 or TFIIA, or anti-HA antibody for taspase1. (F) 293T cells were infected with shRNAs against CKIIα or CKIIα′. Western blot was performed with anti-MLL1C antibody for MLL1 full-length protein levels, and CKIIα or CKIIα′ for knockdown efficiency. (G) 293T cells were treated with DMSO or 10 μM CX-4945 for 30 hours. Cells were harvested and lysed for Western blot against MLL1, MLL2 or TFIIA using β-tubulin as the loading control. (H) and (I) 293T taspase1 KO cells were pre-treated with CX-4945 (3 μM) or TTP22 (10 μM) for 30 hours. Whole cell lysates from the two conditions were incubated with increasing concentrations of his-taspase1 and subject to in vitro taspase1 assay.
FIG. 13. CKII inhibitors increase full-length MLL1 protein levels. (A) Prediction of kinases that phosphorylate MLL1 near the taspase1 cleavage site. (B) Structure of the CKII inhibitors CX-4945, TTP22, DMAT and TTB. (C) Comparison of the IC50 and molecular weight of the four CKII inhibitors. […] Quantification of the band intensities was performed by ImageJ software. (E) and (F) in vitro taspase1 cleavage assay. Taspase1 KO cell lysates were incubated with recombinant his-tagged taspase1 (0, 1, 10, 100 or 1000 ng) and subject to in vitro taspase1 cleavage assay. Cleavage efficiency was shown as the blotting for MLL1 and TFIIA using Hsp90 as the loading control.
Cell culture. […]

For `Cc1ccc(-c2csc3ncnc(SCCC(=O)O)c23)cc1` [TTP22, 3-[[5-(4-Methylphenyl)thieno[2,3-d]pyrimidin-4-yl]thio]propanoic acid], the “cleavage efficiency by recombinant taspase1 protein” value in assay [1] was “cleavage efficiency was significantly diminished”. Further, in the assay with MLL1 chromatin occupancy, the “MLL1 occupancy (genome-wide)” value was “global increase of MLL1 occupancy”. Also, the “MLL1 full-length protein levels” value in the assay with MLL1 is on record as “dose-dependent increase of MLL1 full-length protein levels”.
